Legend:
LoVo cells = assay: Inhibition of potentially lethal damage recovery, colony formation; format: cell-based; details: 8 Gy + 0.4 μM compound
From the text: A contributory factor to radiation resistance in vivo is the ability of quiescent cells to repair potentially lethal damage (PLD) (Weichselbaum, R. R. and Little, J. B. The differential response of human tumors to fractionated radiation may be due to a post-irradiation repair process. Br. J. Cancer 1982; 46: 532-537). In vitro models of PLD measure the increase in survival of irradiated, growth arrested cells following delayed plating for colony formation. Recovery from potentially lethal damage was measured in vitro using LoVo cells that had been arrested in G1 phase by growing to confluence to mimic the radio-resistant quiescent cell population in tumors. Cells were exposed to 8 Gy of γ-irradiation (Gammacel 1000 Elite, Nordian International Inc. Canada), and either harvested and plated for colony formation assay immediately or maintained as growth arrested confluent cultures for a 24-hour recovery period before harvesting and plating for the colony formation assay. Where indicated, 0.4 μM compound Formula 1 was added 30 minutes before irradiation and was present throughout the recovery incubation.

PARP = PARP activity in peripheral blood lymphocytes of patients (monoclonal antibody assay); format: in vivo, human
Experimental: Whole blood was collected into EDTA vacutainers and human PBLs were obtained by lymphopreparation according to the manufacturers instructions. Tumour biopsies were collected from the operating theatre in a sterile container and placed immediately on ice. Within 30 minutes tumour samples were snap frozen in liquid nitrogen and stored at −80° C. until homogenised for analysis. The specimen was defrosted on ice and the wet weight documented. For weights over 100 mg the tissue was homogenised using a Pro 2000 instrument (Pro Scientific Inc, Monroe, Conn., USA) in 3 volumes (i.e. 1 mg plus 3 μl isotonic buffer −7 mM Hepes, 26 mM KCl, 0.1 mM dextran, 0.4 mM EGTA, 0.5 mM MgCl2, 45 mM sucrose, pH 7.8), giving a homogenate with an overall dilution of 1 in 4. Where smaller samples had been obtained they were homogenised in 99 or 999 volumes, giving final dilutions of 1 in 100 and 1 in 1000, respectively. The homogenate was kept on ice throughout the process, and homogenisation was performed in 10 second bursts to prevent undue warming of the sample. Unless assayed on the day of homogenisation, samples were re-frozen to −80° C. and stored at this temperature until analysed. Prior to assay the samples were further diluted with isotonic buffer where necessary to give a final dilution of 1 in 1000.
Cultured cells or rapidly defrosted lymphocyte preparations were washed twice in ice cold PBS. The cell pellets were resuspended in 0.15 mg/ml digitonin to a density of approximately 1-2×10^6 cells per ml for 5 minutes to permeabilise the cells, following which 9 volumes of ice-cold buffer (7 mM HEPES, 26 mM KCl, 0.1 mM dextran, 0.4 mM EGTA, 0.5 mM MgCl2, 45 mM sucrose, pH 7.8) were added and the sample placed on ice. The permeabilised (i.e. trypan blue stained) cell density was counted and the cell suspension was diluted if necessary with the above buffer to achieve a cell density that allowed 20,000 permeabilised cells to be added to each reaction tube. In the assay maximally stimulated PARP activity is measured by exposure to a blunt ended oligonucleotide in the presence of NAD^+ substrate, at 26° C. in an oscillating water bath. Five μl of 7 mM NAD^+ and 5 μl 200 μg/ml pallindromic oligonucleotide ([…]) were mixed with permeabilised cells and reaction buffer (100 mM Tris HCl, 120 mM MgCl2, pH 7.8) to a final volume of 100 μl. The reaction was stopped after 6 minutes by the addition of excess PARP inhibitor (400 μl of 12.5 μM Compound I) and the cells blotted onto a nitrocellulose membrane (Hybond N, Amersham) using a 24-well manifold. A purified PAR standard curve was loaded onto each membrane (0-25 pmol monomer equivalent) to allow quantification. Overnight incubation with the primary antibody (1 in 500 in PBS-MT (PBS plus 0.05% Tween 20 Plus 5% Milk powder) at 4° C. was followed by 2 washes in PBS-T (PBS plus 0.05% Tween 20) and then incubation in secondary antibody (1 in 1000 in PBS-MT) for 1 hour at room temperature. The incubated membrane was washed frequently with PBS over the course of one hour then exposed for one minute to ECL reaction solution as supplied by the manufacturer. Chemiluminesence detected during a 5 minute exposure was measured using a Fuji LAS3000 UV Illuminator (Raytek, Sheffield, UK) and digitised using the imaging software (Fuji LAS Image version 1.1, Raytek). The acquired image was analysed using Aida Image Analyser (version 3.28.001), and results expressed in LAU/mm^2. Three background areas on the exposed blot were measured and the mean of the background signal from the membrane subtracted from all results. The PAR polymer standard curve was analysed using an un-weighted one site binding non-linear regression model and unknowns read off the standard curve so generated. Results were then expressed relative to the number of cells loaded. Triplicate QC samples of 5000 L1210 cells were run with each assay, all samples from one patient being analysed on the same blot. […]

`CNCc1ccc(-c2[nH]c3cc(F)cc4c3c2CCNC4=O)cc1` [compound of formula 1, 8-fluoro-2-{4-[(methylamino)methyl]phenyl}-1,3,4,5-tetrahydro-6H-azepino[5,4,3-cd]indol-6-one] was tested, and the “% PLDR” value (LoVo cells; 100 × (survival at 24 hr-survival at 0 time)/survival at 0 time) was 211 ± 184%, the “Survival at 0 time” value (LoVo cells; G1-arrested) was 0.02 ± 0.01 and the “Survival at 24 hr” value (LoVo cells; G1-arrested) was 0.057 ± 0.038. The inhibition at 0.4 µM (LoVo cells; Homo sapiens, mean of 3 independent experiments, read-out: Inhibition of PLDR) was 64.9%.
With `CNCc1ccc(-c2[nH]c3cc(F)cc4c3c2CCNC4=O)cc1.O=P(O)(O)O` [Compound I, phosphate salt of 8-fluoro-2-{4-[(methylamino)methyl]phenyl}-1,3,4,5-tetrahydro-6H-azepino[5,4,3-cd]indol-6-one] the “decrease in median PARP activity” value (PARP; PBL, all patients regardless of dose, after completion of the 30-minute infusion on Day 1) was no less than 50%, the “% Pretreatment PARP Activity, Median (%)” value (PARP; PBL, cohort 1, Compound I 1 mg/m^2, 4-6 h, after test dose (usually Day −7)) was 57% and the “% Pretreatment PARP Activity, Median (%)” value (PARP; PBL, cohort 1, Compound I 1 mg/m^2, 0.5 h, after test dose (usually Day −7)) was 18%. For the same molecule, the “% Pretreatment PARP Activity, Median (%)” value (PARP; PBL, cohort 1, Compound I 1 mg/m^2, 24 h, after test dose (usually Day −7)) was 77%, the “% Pretreatment PARP Activity, Median (%)” value (PARP; PBL, cohort 2, Compound I 2 mg/m^2, 4-6 h, Day 1) was 27% and the “% Pretreatment PARP Activity, Median (%)” value (PARP; PBL, cohort 2, Compound I 2 mg/m^2, 0.5 h, Day 1) was 10%. The “% Pretreatment PARP Activity, Median (%)” value (PARP; PBL, cohort 2, Compound I 2 mg/m^2, 24 h, Day 1) was 36%, the “% Pretreatment PARP Activity, Median (%)” value (PARP; PBL, cohort 3, Compound I 4 mg/m^2, 4-6 h, Day 1) was 28% and the “% Pretreatment PARP Activity, Median (%)” value (PARP; PBL, cohort 3, Compound I 4 mg/m^2, 0.5 h, Day 1) was 42%. The “% Pretreatment PARP Activity, Median (%)” value (PARP; PBL, cohort 3, Compound I 4 mg/m^2, 24 h, Day 1) was 108%, the “% Pretreatment PARP Activity, Median (%)” value (PARP; PBL, cohort 4, Compound I 8 mg/m^2, 4-6 h, Day 1) was 16% and the “% Pretreatment PARP Activity, Median (%)” value (PARP; PBL, cohort 4, Compound I 8 mg/m^2, 0.5 h, Day 1) was 1%. For the same molecule, the “% Pretreatment PARP Activity, Median (%)” value (PARP; PBL, cohort 4, Compound I 8 mg/m^2, 24 h, Day 1) was 9%, the “% Pretreatment PARP Activity, Median (%)” value (PARP; PBL, cohort 9, Compound I 18 mg/m^2, 4-6 h, Day 1) was 7.5% and the “% Pretreatment PARP Activity, Median (%)” value (PARP; PBL, cohort 9, Compound I 18 mg/m^2, 0.5 h, Day 1) was 6%. For the same molecule, the “% Pretreatment PARP Activity, Median (%)” value (PARP; PBL, cohort 9, Compound I 18 mg/m^2, 24 h, Day 1) was 14%, the “median reduction in PARP activity” value (PARP; PBL, cohorts 4 and 5, 24 hours after Day 1 dose) was greater than 50% and the “% Pretreatment PARP Activity, Median (%)” value (PARP; PBL, cohorts 5-8, Compound I 12 mg/m^2, 4-6 h, Day 1) was 13%. The “% Pretreatment PARP Activity, Median (%)” value (PARP; PBL, cohorts 5-8, Compound I 12 mg/m^2, 0.5 h, Day 1) was 14.5%, the “% Pretreatment PARP Activity, Median (%)” value (PARP; PBL, cohorts 5-8, Compound I 12 mg/m^2, 24 h, Day 1) was 29% and the “PARP inhibitory dose (PID)” value (PARP; patients, PARP activity in peripheral blood lymphocytes <50% of baseline 24 hours after Day 1 dose, with plateau) was 12 mg/m^2.

From patent publication US20060074073A1, “Therapeutic combinations comprising poly (ADP-ribose) polymerases inhibitor” (AGOURON PHARMACEUTICALS, INC., priority 2004, published 2006)
